Results taken from patent publication US9926294B2, “Pesticidally active heterocyclic derivatives with sulphur containing substituents” (Syngenta Participations AG, priority 2014, dated 2018).

Key:
Assay type in all cases: in vivo
[1] = system: Diabrotica balteata (corn root worm); test: Example B4: Diabrotica balteata larvae L2 on maize sprouts, feeding/contact, preventative; details: 120 h, L2 larvae on sprayed maize sprouts, 5 days incubation, read-out: activity (larval mortality, growth regulation)
Description: Example B4: Activity Against Diabrotica Balteata (Corn Root Worm)
(Larvae L2 on Maize Sprouts, Feeding/Contact, Preventative)
Maize sprouts, placed on an agar layer in 24 well micro titer plates were treated with test solutions by spraying. After drying, the MTPs were infested with L2 larvae (6-10 per well). After an incubation period of 5 days, samples were checked for larval mortality and growth regulation.

[2] = system: Spodoptera littoralis (Egyptian cotton leaf worm); test: Example B2: Spodoptera littoralis systemic activity (lettuce on agar); details: 120 h, systemic via lettuce roots, 5 days after infestation, read-out: activity (mortality, repellent effect, feeding behavior, growth regulation)
Source text: Example B2: Activity Against Spodoptera littoralis (Egyptian Cotton Leaf Worm)
Test compounds were applied by pipette into 24 well plates and mixed with agar. Lettuce seeds were placed on the agar and the multi well plate is closed by another plate which contains also agar. After 7 days the roots have absorbed the compound and the lettuce has grown into the lid plate. The lettuce leaves were now cut off into the lid plate. Spodoptera eggs were pipetted through a plastic stencil on a humid gel blotting paper and the plate closed with it. The samples are checked for mortality, repellent effect, feeding behavior, and growth regulation 5 days after infestation.

[3] = system: Spodoptera littoralis (Egyptian cotton leaf worm); test: Example B1: Spodoptera littoralis larvicide, feeding/residual contact, preventive (cotton leaf discs); details: foliar, 72 h, L1 larvae on sprayed cotton leaf discs, 3 days after treatment, read-out: activity (mortality, repellent effect, feeding behaviour, growth regulation)
Source text: Example B1: Activity Against Spodoptera littoralis (Egyptian Cotton Leaf Worm)
Larvicide, Feeding/Residual Contact Activity, Preventive
Cotton leaf discs were placed on agar in a 24-well microtiter plate and sprayed with test solutions.
After drying, the leaf discs were infested with 5 L1 larvae. The samples were checked for mortality, repellent effect, feeding behaviour, and growth regulation 3 days after treatment (DAT).

[4] = system: Plutella xylostella (diamond back moth); test: Example B3: Plutella xylostella larvicide, feeding/residual contact, preventive (artificial diet); details: 120 h, L2 larvae on artificial diet, 5 days incubation, read-out: activity (larval mortality, antifeedant, growth regulation)
Description: Example B3: Activity Against Plutella xylostella (Diamond Back Moth)
(Larvicide, Feeding/Residual Contact Activity, Preventive)
24-well microtiter plate (MTP) with artificial diet was treated with test solutions by pipetting. After drying, the MTPs were infested with L2 larvae (10-15 per well). After an incubation period of 5 days, samples were checked for larval mortality, antifeedant and growth regulation.

[5] = system: Bemisia tabaci (cotton white fly); test: Example B9: Bemisia tabaci adulticide contact activity, preventative; details: foliar, 168 h, adult white flies on sprayed cotton leaf discs, 7 DAT, read-out: activity (mortality, special effects)
Description: Example B9: Activity Against Bemisia tabaci (Cotton White Fly)
(Adulticide Contact Activity, Preventative), Adult
Cotton leaf discs were placed on agar in a 24-well microtiter plate and sprayed with test solutions. After drying, the leaf discs were infested with adult white flies. After an incubation period of 7 DAT, samples were checked for mortality and special effects (e.g. phytotoxicity).

[6] = system: Myzus persicae (green peach aphid); test: Example B7: Myzus persicae systemic/feeding activity, curative, mixed population (pea seedlings); details: 144 h, roots of infested pea seedlings in test solution, 6 days after introduction, read-out: activity (mortality, special effects on the plant)
Source text: Example B7: Activity Against Myzus persicae (Green Peach Aphid)
(Systemic/Feeding Activity, Curative), Mixed Population
Roots of pea seedlings, infested with an aphid population of mixed ages, were placed directly in the test solutions. 6 days after introduction, samples were checked for mortality and special effects on the plant.

[7] = system: Myzus persicae (green peach aphid); test: Example B6: Myzus persicae feeding activity sachet test, mixed population; details: 120 h, sachet test in sucrose solution, 5 days after infestation
Source text: Example B6: Activity Against Myzus persicae (Green Peach Aphid)
(Feeding Activity Sachet Test), Mixed Population
Test compounds were applied by pipette into 24 well plates and mixed with Sucrose solution. The plates were closed with a stretched Parafilm. A plastic stencil with 24 holes is placed onto the plate and infested pea seedlings were placed directly on the Parafilm. The infested plate is closed with a gel blotting paper and another plastic stencil and then turned upside down. 5 days after infestation the samples were checked on mortality. Application rate: 12.5 ppm.

[8] = system: Myzus persicae (green peach aphid); test: Example B5: Myzus persicae feeding/residual contact, preventive, mixed population (sunflower leaf discs); details: foliar, 144 h, mixed population on sprayed sunflower leaf discs, 6 DAT, read-out: activity (mortality, special effects)
Description: Example B5: Activity Against Myzus persicae (Green Peach Aphid)
(Feeding/Residual Contact Activity, Preventive), Mixed Population
(§1) Sunflower leaf discs were placed on agar in a 24-well microtiter plate and sprayed with test solutions. After drying, the leaf discs were infested with an aphid population of mixed ages. After an incubation period of 6 DAT, samples were checked for mortality and special effects (e.g. phytotoxicity).

[9] = system: Thrips tabaci (onion thrips); test: Example B8: Thrips tabaci mixed population, feeding/residual contact, preventive; details: foliar, 168 h, mixed population on sprayed sunflower leaf discs, 7 days incubation, read-out: activity (mortality, special effects)
Description: Example B8: Activity Against Thrips tabaci (Onion Thrips)
(Mixed Population, Feeding/Residual Contact Activity, Preventive)
as §1, with “a thrips” for “an aphid”, “7 days,” for “6 DAT,”

Compound	mortality at 400 ppm [1] [%]	mortality at 400 ppm [3] [%]	mortality at 400 ppm [4] [%]	mortality at 400 ppm [8] [%]	other results
CCS(=O)(=O)c1cc(C(F)(F)F)cnc1-c1nnc(-c2ccc(C(F)(F)F)cc2)n1C [Compound P5]	> 80	> 80	> 80		mortality at 12.5 ppm [2]: ≥ 80%
CCS(=O)(=O)c1cc(C(F)(F)F)cnc1-c1nnc(-c2cccc(C(F)(F)F)c2)n1C [Compound P7]	> 80	> 80	> 80	> 80	mortality at 400 ppm [5]: > 80%; mortality at 24 ppm [6]: ≥ 80%; mortality at 12.5 ppm [7]: ≥ 80%; mortality at 12.5 ppm [2]: ≥ 80%
CCS(=O)(=O)c1cc(C(F)(F)F)cnc1-c1nnc(-c2ccnc(C(F)(F)F)c2)n1C [Compound P8]				> 80	mortality at 400 ppm [5]: > 80%; mortality at 24 ppm [6]: ≥ 80%
CCS(=O)(=O)c1cc(C(F)(F)F)cnc1-c1nnc(-c2ccc(C(F)(F)F)cn2)n1C [Compound P10]	> 80	> 80			
CCS(=O)(=O)c1cc(C(F)(F)F)cnc1-c1nnc(-c2cc(C(F)(F)F)cc(C(F)(F)F)c2)n1C [Compound P12]		> 80	> 80		
CCS(=O)(=O)c1cc(C(F)(F)F)cnc1-c1nnc(-c2ccc(F)c(Cl)c2)n1C [Compound P15]	> 80	> 80		> 80	mortality at 12.5 ppm [7]: ≥ 80%
CCS(=O)(=O)c1cc(C(F)(F)F)cnc1-c1nnc(-c2cc(Cl)cc(Cl)c2)n1C [Compound P16]	> 80	> 80		> 80	
CCS(=O)(=O)c1cc(C(F)(F)F)cnc1-c1nnc(-c2cc(C(F)(F)F)ccc2F)n1C [Compound P19]				> 80	
CCS(=O)(=O)c1cc(C(F)(F)F)cnc1-c1nnc(-c2cccc(OC(F)(F)F)c2)n1C [Compound P20]	> 80	> 80		> 80	mortality at 12.5 ppm [7]: ≥ 80%
CCS(=O)(=O)c1cc(C(F)(F)F)cnc1-c1nnc(-c2ccc(C(F)(C(F)(F)F)C(F)(F)F)cc2)n1C [Compound P21]	> 80	> 80			
CCS(=O)(=O)c1cc(C(F)(F)F)cnc1-c1nnc(-c2ccc(Cl)c(F)c2)n1C [Compound P22]	> 80	> 80		> 80	mortality at 12.5 ppm [7]: ≥ 80%
CCS(=O)(=O)c1cc(C(F)(F)F)cnc1-c1nnc(-c2cccc(C(F)(F)Cl)c2)n1C [Compound P24]	> 80	> 80	> 80	> 80	mortality at 12.5 ppm [7]: ≥ 80%
CCS(=O)(=O)c1cc(C(F)(F)F)cnc1-c1nnc(-c2cccc3c2OC(F)(F)O3)n1C [Compound P30]				> 80	mortality at 12.5 ppm [7]: ≥ 80%
CCS(=O)(=O)c1cc(C(F)(F)F)cnc1-c1nnc(-c2ccc(OC(F)(F)F)cc2)n1C [Compound P33]		> 80	> 80	> 80	mortality at 12.5 ppm [7]: ≥ 80%; mortality at 12.5 ppm [2]: ≥ 80%
CCS(=O)(=O)c1cc(C(F)(F)F)cnc1-c1nnc(-c2cccc(C#N)c2)n1C [Compound P34]				> 80	mortality at 24 ppm [6]: ≥ 80%
CCS(=O)(=O)c1cc(C(F)(F)F)cnc1-c1nnc(-c2ccc(C#N)cc2)n1C [Compound P35]	> 80				mortality at 24 ppm [6]: ≥ 80%

Compound	mortality at 400 ppm [1] [%]	mortality at 400 ppm [3] [%]	mortality at 400 ppm [4] [%]	mortality at 400 ppm [8] [%]	other results
CCS(=O)(=O)c1cc(C(F)(F)F)cnc1-c1nnc(-c2ccc(Cl)c(Cl)c2)n1C [Compound P46]	> 80	> 80		> 80	
CCSc1cc(C(F)(F)F)cnc1-c1nnc(-c2cccc(C(F)(F)F)n2)n1C [Compound P49]					mortality at 400 ppm [5]: > 80%
CCS(=O)(=O)c1cc(C(F)(F)F)cnc1-c1nnc(-c2ccc(C(F)F)cc2)n1C [Compound P53]				> 80	
CCSc1cc(C(F)(F)F)ccc1-c1nnc(-c2ccc(C(F)(F)F)nc2)n1C [Compound P54]	> 80				
CCS(=O)(=O)c1cc(C(F)(F)F)ccc1-c1nnc(-c2ccc(C(F)(F)F)nc2)n1C [Compound P55]	> 80			> 80	mortality at 24 ppm [6]: ≥ 80%
CCS(=O)(=O)c1cc(C(F)(F)F)cnc1-c1nnc(-c2ccc3c(c2)OC(F)(F)O3)n1C [Compound P56]	> 80	> 80			
CCS(=O)(=O)c1cc(OC(F)F)cnc1-c1nnc(-c2ccc(C(F)(F)F)nc2)n1C [Compound P58]				> 80	mortality at 400 ppm [5]: > 80%; mortality at 24 ppm [6]: ≥ 80%
CCS(=O)(=O)c1cc(C(F)(F)F)cnc1-c1nnc(-c2ccc(C(F)(F)F)c(C(F)(F)F)c2)n1C [Compound P61, 2-[5-[3,4-bis(trifluoromethyl)phenyl]-4-methyl-1,2,4-triazol-3-yl]-3-ethylsulfonyl-5-(trifluoromethyl)pyridine]	> 80	> 80	> 80	> 80	mortality at 400 ppm [5]: > 80%
CCS(=O)(=O)c1cc(C(F)(F)F)cnc1-c1nnc(-c2cc(C(F)(F)F)cc(Cl)n2)n1C [Compound P63]	> 80	> 80			
CCSc1cc(C(F)(F)F)cnc1-c1nnc(-c2cc(C(F)(F)F)ccn2)n1CC [Compound P64]	> 80	> 80			
CCS(=O)(=O)c1cc(OC(F)F)cnc1-c1nnc(-c2cc(C(F)(F)F)ccn2)n1C [Compound P66]	> 80	> 80	> 80	> 80	mortality at 24 ppm [6]: ≥ 80%; mortality at 12.5 ppm [2]: ≥ 80%
CSc1cc(C(F)(F)F)cnc1-c1nnc(-c2cc(C(F)(F)F)ccn2)n1C [Compound P70]	> 80				
Cn1c(-c2cc(C(F)(F)F)ccn2)nnc1-c1ncc(C(F)(F)F)cc1S(C)(=O)=O [Compound P71]	> 80	> 80	> 80	> 80	mortality at 24 ppm [6]: ≥ 80%
Cn1c(-c2cc(C(F)(F)F)ccn2)nnc1-c1ncc(C(F)(F)F)cc1S(=O)(=O)CC1CC1 [Compound P72]			> 80		mortality at 400 ppm [9]: > 80%
Cn1c(-c2cc(C(F)(F)F)ccn2)nnc1-c1ncc(C(F)(F)F)cc1SCC1CC1 [Compound P76]	> 80		> 80		mortality at 400 ppm [9]: > 80%
